Source: patent publication US4666907A, “Phenothiazine and derivatives and analogs and use as leukotriene biosynthesis inhibitors” (Merck Frosst Canada, Inc., priority 1986, dated 1987)
Converted amounts (≈) assume the structure as drawn. Like-named read-outs stand apart in the source and are kept apart here.

Experiments:
[1] = test system: sensitized guinea pig trachea; test: Antigen challenge 'in vitro' assay (egg albumin-induced contraction of sensitized tracheal chains); type: cell-based; details: Cavia porcellus; for inhibition at 3 µg/mL: at 3 μg/ml; for inhibition at 10 µg/mL / inhibition at 1 µg/mL: read-out: In Vitro Antigen Challenge % Inhibition
Protocol: Male guinea pigs weighing 300-350 g were sensitized by injecting (i.p.) 0.5 ml of a suspension containing 0.4 mg of egg albumin (Ovalbumin, Grade V, Sigma Chemical Co.) and 4.0 g aluminum hydroxide in 19.6 ml of saline. Two weeks were permitted for sensitization to occur.
Three sensitized guinea pigs were stunned and exsanguinated. The tracheas were removed, freed of adhering tissue and divided longitudinally by cutting through the cartilaginous tissue directly opposite the muscle insertion. Each opened trachea was then transected between every second cartilage. Four of the cut sections were tied together, end to end in a series with No. 0.7 silk thread ensuring that the tracheal muscles were all in the same vertical plane. Thus, each chain consisted of tissue from three different animals.
The chain so formed was then suspended under 1 g of tension (by silk ties at each end) in a 20 ml organ bath containing 10 ml of modified^1 Krebs-Henseleit buffer solution gassed with 95% O2 and 5% CO2 at 37° C. Mepyramine (0.55 μg/ml) and indomethacin (2.67 μg/ml were added to the buffer to avoid the contribution of histamine receptors and cyclooxygenase products to the contraction. To record responses one end of the tracheal chain was attached to a Gould Statham UC-2 force displacement transducer which was connected to a Beckman Type R-dynograph.The preparations were allowed to equilibrate for one hour during which time the tissues were automatically washed (10 ml volume displacement) ever 6 minutes.
After the equilibration period the tissues were primed with methacholine (3 μg/lml; 1.5×10^-5 M), washed and allowed to recover to baseline. The tissues were treated again with a second dose of methacholine, washed, allowed to return to baseline and washed for an additional hour.
Two chains were used as a control. These were incubated in a concentration of egg albumin sufficient to induce an average contraction of 50-80% of the methacholine response.
Each compound to be tested was added to two other baths (at a final concentration in each bath of 10 μg/ml or lower) 15 minutes prior to challenging the fresh chains with egg albumin.
The response of the challenged tissue was expressed as a percentage of the methacholine maximum. The % inhibition for each compound was then calculated. Compounds which at 10 μg/ml (final concentration) inhibited the egg albumin response by 50% or more were retested at a lower concentration.

[2] = test system: LTB4 formation in rat PMN; test: Rat polymorphonuclear leukocyte (P.M.N.) assay, LTB4 formation; type: cell-based; details: A-23187, LTB4
Protocol: Rats under ether anesthesia are injected (i.p.) with 8 ml of a suspension of sodium caseinate (6 grams in ca. 50 ml water). After 15-24 hours the rats are sacrificed (CO2) and the cells from the peritoneal cavity are recovered by lavage with 20 ml of buffer (Eages MEM containing 30 mM HEPES adjusted to pH 7.4 with NaOH). The cells are pelleted (350×g, 5 min.), resuspended in buffer with vigorous shaking, filtered through lens paper, recentrifuged and finally suspended in buffer at a concentration of […]. A 500 μl aliquot of PMN suspension and test compound are preincubated for 2 minutes at 37° C., followed by the addition of 10 μM A-23187. The suspension is stirred for an additional 4 minutes then bioassayed for LTB4 content by adding an aliquot to a second 500 μl portion of the PMN at 37° C. The LTB4 produced in the first incubation causes aggregation of the second PMN, which is measured as a change in light transmission. The size of the assay aliquot is chosen to give a submaximal transmission change (usually […]) for the untreated control. The percentage inhibition of LTB4 formation is calculated from the ratio of transmission change in the sample to the transmission change in the compound-free control.

[3] = test system: Mouse peritoneal macrophages; test: Mouse macrophage assay (zymosan-stimulated arachidonic acid metabolites, Leukotriene C4); type: cell-based; details: read-out: Macrophage IC50
Protocol: Mouse peritoneal macrophages were treated sequentially with arachidonic acid (labelled with tritium); the compound being evaluated as an inhibitor, and a stimulator (zymosan). Metabolites derived from arachidonic acid (PGE2, 6-Keto PG-F1@ and Leukotriene C4) were separated from the incubation medium by extraction and chromatography, and then quantitated by determining the amount of radioactivity (cpm) associated with each of them. […] (This protocol is identical to that described in the reference except that the radioactivity herein associated with the LTC4 was determined by counting an aliquot of the final aqueous solution directly rather than chromatographing it first).
Reference: Humes, J. L. et al., J. Biol. Chem. 257, 1591-4 (1982).

[4] = test system: asthmatic rats; test: Asthmatic rat assay (duration of dyspnoea after egg albumin aerosol); type: in vivo; details: po; for inhibition in vivo at 1.5 mg/kg: 1.5 mg/kg p.o.; for inhibition in vivo at 3 mg/kg: 3 mg/kg p.o.
Source text: Rats were obtained from an inbred line of asthmatic rats. Both female and male rats from 200 to 300 g were used.
Egg albumin (EA), grade V, crystallized and lyophilized, was obtained from Sigma Chemical Co., St. Louis. Bordetella pertussis vaccine, containing 30×10^9 killed bacteria per ml was obtained from the Institut Armand-Frappier, Laval des Rapides, Quebec. Aluminum hydroxide was obtained from the Regeis Chemical Company, Chicago.
The challenge and subsequent respiratory recordings were carried out in a clear plastic box with internal dimensions 10×6×4 inches. The top of the box was removable; in use, it was held firmly in place by four clamps and an airtight seal was maintained by a soft rubber gasket. […] A Fleisch No. 0000 pneumotachograph was inserted into one end of the box and coupled to a Grass volumetric pressure transducer (PT5-A) which was then connected to a Beckman Type R Dynograph through appropriate couplers. While aerosilizing the antigen, the outlets were open and the pneumotachograph was isolated from the chamber. The outlets were closed and the pneumotachograph and the chamber were connected during the recording or the respiratory patterns. For challenge, 2 ml of a 3% solution of antigen in saline was placed into each nebulizer and the aerosol was generated with air from a small Potter diaphragm pump operating at 10 psi and a flow of 8 liters/minutes.
Rats were sensitized by injection (s.c.) 1 ml of a suspension containing 1 mg EA and 200 mg aluminum hydroxide in saline. Simultaneously, they received an injection (i.p.) of 0.5 ml of B. pertussis vaccine. They were used between days 14 and 18 postsensitization. In order to eliminate the serotonin component of the response, rats were pretreated intravenously 5 minutes prior to aerosol challenge with […] methylserzide. Rats were then exposed to an aerosol of 3% EA in saline for exactly 1 minute, then their respiratory profiles were recorded for a further 25-30 minutes. The duration of continuous dyspnoea was measured from the respiratory recordings.
Compounds were generally administered either intraperitoneally 1 hour prior to challenge or orally 11/2 hours prior to challenge. They were either dissolved in dimethylsulfoxide or suspended in 0.1% methocel and 0.5% Tween 80. The volume injected has 2 ml kg^-1 (intraperitoneally) or 10 ml kg^-1 (orally). Prior to oral treatment rats were starved overnight. Their activity was determined in terms of their ability to decrease the duration of symptoms of dyspnoea in comparison with a group of vehicle-treated controls. Usually, a compound was evaluated at a series of doses and an ED50 was determined. This was defined as the dose (mg/kg) which would inhibit the duration of symptoms by 50%.

[5] = test system: PAF-induced hyperalgesia in Sprague-Dawley rats; test: PAF-induced hyperalgesia assay (vocalization threshold, rat paw); type: in vivo; details: po, read-out: PAF Induced Hyperalgesia Assay % inhibition
Protocol: Female Sprague-Dawley rats, 35-40 g were fasted overnight. Platelet activating factor, PAF, (L-lecithin B-acetyl O-alkyl) 1 μg/0.1 ml was given by subplantar injection in the rat paw. The compounds to be evaluated were homogenized in aqueous Vehicle (0.9% benzyl alcohol, 0.5% Tween 80 and 0.4% methylcellulose) and administered orally in a volume of 0.1 ml, 30 minutes prior to PAF.
Animals were tested 1, 2, 3 and 4 hours after PAF administration. The vocalization threshold, defined as the pressure (mm Hg) needed to evoke a squeak response, was recorded for both the injected and contralateral paw. No animal was subjected to pressure greater than 60 mm Hg. Hyperalgesia is defined as a decrease in vocalization threshold as compared to a normal paw. Percent inhibition of hyperalgesia was calculated as the proportion of animals with vocalization thresholds greater than 200% of controls.

[6] = mouse peritoneal macrophages, zymosan

SMILES	IC50 [2]	IC50 [3, 6]	inhibition at 10 µg/mL ([1]; at 10 μg/ml)	further results
COc1ccc2c(c1Cl)Sc1ccccc1N2C(C)=O [Compound 22]	1 mg/L (≈ 3.27 µM)	1 mg/L	91%	–
COc1ccc2c(c1Cl)Sc1ccccc1N2C [drawing 64]	–	–	–	inhibition in vivo at 0.2 mg/kg ([4]; 0.2 mg/kg p.o.): 50%; responders at 0.016 mg/kg ([5]; 0.016 mg/kg p.o.): 50%
CC(=O)Oc1ccc2c(c1Cl)Sc1ccccc1N2 [Compound 11]	–	0.1 mg/L	100%	–
COc1ccc2c(c1)Sc1c(cc(OC)c(O)c1Br)N2C(C)=O	–	–	–	inhibition in vivo at 1.5 mg/kg [4]: 78%; responders at 0.1 mg/kg ([5]; 0.1 mg/kg p.o.): 60%
Cc1cccc2c1Nc1ccccc1S2 [Compound 4]	–	5 mg/L	76%	–
O=S1(=O)c2ccccc2Nc2ccc(O)c(O)c21	–	–	–	inhibition in vivo at 1.5 mg/kg [4]: 65%
COc1ccc2c(c1Cl)Sc1ccccc1N2C(C)=O [drawing 70]	–	–	–	inhibition in vivo at 1.5 mg/kg [4]: 59%; responders at 0.01 mg/kg ([5]; 0.01 mg/kg p.o.): 50%
COc1ccc2c(c1)Sc1cc(C)ccc1N2C	–	–	–	inhibition in vivo at 3 mg/kg [4]: 58%; responders at 1 mg/kg ([5]; 1 mg/kg p.o.): 30%
COc1ccc2c(c1Cl)Sc1cc(F)ccc1N2C	–	–	–	inhibition in vivo at 3 mg/kg [4]: 42%
CC(=O)Oc1ccc2c(c1)Sc1ccccc1N2 [Compound 7]	0.005 mg/L (≈ 0.0194 µM)	0.01 to 0.1 mg/L	60%	–
Oc1cccc2c1Nc1ccccc1S2 [Compound 18]	0.05 to 0.5 mg/L (≈ 0.232 to 2.32 µM)	–	3%	–
CC(=O)N1c2ccccc2Sc2c1ccc(O)c2Cl	–	–	–	inhibition in vivo at 3 mg/kg [4]: 61%
c1ccc2c(c1)Nc1ccccc1O2 [Compound 24]	5 mg/L (≈ 27.3 µM)	–	–	inhibition at 1 µg/mL [1]: 88%; IC50 ([3]; Mus musculus): 0.1 mg/L
COc1ccc2c(c1Cl)Oc1ccccc1N2C	–	–	–	inhibition in vivo at 0.3 mg/kg ([4]; 0.3 mg/kg p.o.): 49%
CC(=O)Oc1ccc2c(c1Cl)Sc1ccccc1N2C(C)=O	–	–	–	inhibition in vivo at 3 mg/kg [4]: 58%
O=[N+]([O-])c1ccc2c(c1)Sc1cc([N+](=O)[O-])ccc1N2 [Compound 15]	–	0.0016 to 0.008 mg/L	21%	–
c1ccc2c(c1)Nc1ccccc1O2 [drawing 75]	–	–	–	inhibition in vivo at 1.5 mg/kg [4]: 51%
COc1ccc2c(c1Cl)[S+]([O-])c1cc(F)ccc1N2C (stereo not shown)	–	–	–	inhibition in vivo at 3 mg/kg [4]: 52%
COc1ccc2c(c1Cl)Sc1cc(F)ccc1N2C(C)=O	–	–	–	inhibition in vivo at 3 mg/kg [4]: 36%
c1ccc2c(c1)Nc1ccccc1S2 [drawing 34]	0.4 mg/L (≈ 2.01 µM)	–	–	inhibition at 10 µg/mL [1]: 100%; IC50 ([3]; Mus musculus): 0.06 mg/L
COc1ccc2c(c1Cl)[S+]([O-])c1ccccc1N2 (stereo not shown)	–	–	–	inhibition in vivo at 3 mg/kg [4]: 56%

Now from value to compound, other results behind:

IC50 [2]	IC50 [3, 6]	SMILES	inhibition at 10 µg/mL ([1]; at 10 μg/ml)	further results
0.005 to 0.05 mg/L (≈ 0.015 to 0.15 µM)	–	CC(C)C(=O)Oc1ccc2c(c1Cl)Sc1ccccc1N2C [Compound 27]	–	inhibition at 3 µg/mL [1]: 6%
5 mg/L (≈ 18 µM)	1 mg/L	COc1ccc2c(c1Cl)Sc1ccccc1N2C [Compound 26]	3%	–
0.005 to 0.05 mg/L (≈ 0.0186 to 0.186 µM)	0.01 to 0.1 mg/L	Clc1ccc2c(c1)Sc1cc(Cl)ccc1N2 [Compound 14]	1%	–
–	0.1 mg/L	FC(F)(F)c1ccc2c(c1)Nc1ccccc1S2 [Compound 5]	7%	–
–	0.2 mg/L	CC(=O)c1ccc2c(c1)Nc1ccccc1S2 [Compound 8]	60%	–
0.005 mg/L (≈ 0.0182 µM)	–	CC(=O)Oc1ccc2c(c1)Sc1cc(F)ccc1N2 [Compound 19]	–	–
0.01 to 0.1 mg/L (≈ 0.0379 to 0.379 µM)	–	COc1ccc2c(c1Cl)Sc1ccccc1N2 [Compound 12]	–	inhibition at 1 µg/mL ([1]; at 1 μg/ml): 60%
0.01 mg/L (≈ 0.0282 µM)	–	COc1ccc2c(c1)Sc1c(cc(OC)c(O)c1Br)N2 [Compound 16]	–	–
0.05 to 0.5 mg/L (≈ 0.199 to 1.99 µM)	–	FC(F)(F)c1ccc2c(c1)Nc1ccccc1O2 [Compound 23]	–	inhibition at 3 µg/mL [1]: 40%
0.5 mg/L (≈ 1.64 µM)	–	CC(=O)Oc1ccc2c(c1)Sc1cccc(Cl)c1N2C [Compound 25]	–	inhibition at 3 µg/mL [1]: 1 to 9%
0.1 to 1 mg/L (≈ 0.248 to 2.48 µM)	–	Cc1ccc(S(=O)(=O)Oc2ccc3c(c2Cl)Sc2ccccc2N3)cc1 [Compound 10]	–	inhibition at 3 µg/mL [1]: 14%
0.005 mg/L (≈ 0.02 µM)	–	Oc1ccc2c(c1Cl)Sc1ccccc1N2 [Compound 9]	–	inhibition at 3 µg/mL [1]: 97%
0.016 mg/L (≈ 0.0743 µM)	0.1 to 1 mg/L	Oc1ccc2c(c1)Sc1ccccc1N2 [Compound 6]	100%	–
–	5 mg/L	CN(C)c1ccc2c(c1)Sc1cc(N(C)C)ccc1N2 [Compound 17]	–	–
–	0.12 mg/L	COc1ccc2c(c1)Sc1cc(Cl)ccc1N2 [Compound 13]	22%	–
–	5 mg/L	CC(=O)N1c2ccccc2Sc2ccccc21 [Compound 21]	–	–
0.05 to 0.5 mg/L (≈ 0.214 to 2.14 µM)	0.01 to 0.1 mg/L	Clc1cccc2c1Sc1ccccc1N2 [Compound 3]	37%	–
0.005 to 0.05 mg/L (≈ 0.0156 to 0.156 µM)	–	CC(C)C(=O)Oc1ccc2c(c1Cl)Sc1ccccc1N2 [Compound 20]	65%	–
